In PMC11079024, “Identification of a family of species-selective complex I inhibitors as potential anthelmintics” (Nature Communications, 2024):
Values joined by “and” are separate entries in the source; they are usually repeats but may differ in a detail not shown here. Identical values can stand only once. Like-named read-outs stand apart in the source and are kept apart here.

Tests used:
[1] = test system: L1 P. pacificus (PS312); assay: Liquid development and viability assay, P. pacificus; format: cell-based, Pristionchus pacificus; details: liquid growth and development assay, 1 = like DMSO control, 0 = death
Description: Supplementary Figure 9. Class A, B, and C benzimidazoles inhibit complex I of several Clade V nematode species in vitro. […]
against the in vitro complex I activity from C. elegans, C. briggsae, P. pacificus, and P. hermaphrodita […]
L1 C. elegans (N2), C. briggsae (AF16), and P. pacificus (PS312) in a nematode liquid growth and development assay. The colour-coded scale denotes the viability of nematodes following drug treatment relative to DMSO controls; white/pale-yellow indicates nematode growth and viability similar to DMSO controls and red indicates nematode death and arrested development. Data are the mean of at least three biological replicates. Due to seemingly poor growth in liquid culture, P. hermaphrodita was not tested in the liquid viability and development assay.
Supplementary Figure 9 (continued). Davie et al.

[2] = test system: L1 wild-type C. elegans; assay: 15-hour motility assay with drug alone (no KCN); format: cell-based, Caenorhabditis elegans
[3] = test system: C. elegans (N2) complex I (NADH:ubiquinone oxidoreductase); assay: biochemical; format: biochemical; details: wild-type C. elegans mitochondria
Method in brief: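 Mitochondria, 0.2 mg/mL protein, freeze-thawed three times, assayed in 25 mM KPi pH 7.5 with BSA, 80 μM NADH, 60 μM decylubiquinone, 160 μM DCIP, antimycin A and KCN. Rate from initial linear slope of A600 over 15 min. % of solvent control.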

[4] = test system: C. elegans ben-1 mutant strains ECA882, ECA917, ECA1075, ECA1080, CB3474; format: cell-based, Caenorhabditis elegans; details: score 0-1 relative to DMSO, values >1 set to 1
[5] = test system: H. polygyrus; details: cited from earlier work
[6] = 15 hour drug alone (without KCN) treatment, dose 0.1 µM, Mean of replicates
[7] = 15 hour drug alone (without KCN) treatment, dose 0.1 µM, individual replicates
[8] = 15 hour drug alone (without KCN) treatment, dose 0.2 µM, Mean of replicates
[9] = 15 hour drug alone (without KCN) treatment, dose 0.2 µM, individual replicates
[10] = 15 hour drug alone (without KCN) treatment, dose 0.4 µM, Mean of replicates
[11] = 15 hour drug alone (without KCN) treatment, dose 0.4 µM, individual replicates
[12] = 15 hour drug alone (without KCN) treatment, dose 0.8 µM, Mean of replicates
[13] = 15 hour drug alone (without KCN) treatment, dose 0.8 µM, individual replicates
[14] = 15 hour drug alone (without KCN) treatment, dose 3.1 µM, Mean of replicates
[15] = 15 hour drug alone (without KCN) treatment, dose 3.1 µM, individual replicates
[16] = 15 hour drug alone (without KCN) treatment, dose 6.3 µM, Mean of replicates
[17] = 15 hour drug alone (without KCN) treatment, dose 6.3 µM, individual replicates
[18] = 15 hour drug alone (without KCN) treatment, dose 12.5 µM, Mean of replicates
[19] = 15 hour drug alone (without KCN) treatment, dose 12.5 µM, individual replicates
[20] = 15 hour drug alone (without KCN) treatment, dose 25 µM, Mean of replicates
[21] = 15 hour drug alone (without KCN) treatment, dose 25 µM, individual replicates
[22] = 15 hour drug alone (without KCN) treatment, dose 50 µM, Mean of replicates
[23] = 15 hour drug alone (without KCN) treatment, dose 50 µM, individual replicates
[24] = 15 hour drug alone (without KCN) treatment, dose 100 µM, Mean of replicates
[25] = 15 hour drug alone (without KCN) treatment, dose 100 µM, individual replicates

| SMILES | Value relative to DMSO control, drug alone (without KCN) [2, 6] | Value relative to DMSO control, drug alone (without KCN) [2, 7] | Value relative to DMSO control, drug alone (without KCN) [2, 8] | Value relative to DMSO control, drug alone (without KCN) [2, 9] | Value relative to DMSO control, drug alone (without KCN) [2, 10] | Value relative to DMSO control, drug alone (without KCN) [2, 11] | Value relative to DMSO control, drug alone (without KCN) [2, 12] | Value relative to DMSO control, drug alone (without KCN) [2, 13] | Value relative to DMSO control, drug alone (without KCN) [2, 14] | Value relative to DMSO control, drug alone (without KCN) [2, 15] | Value relative to DMSO control, drug alone (without KCN) [2, 16] | Value relative to DMSO control, drug alone (without KCN) [2, 17] | Value relative to DMSO control, drug alone (without KCN) [2, 18] | Value relative to DMSO control, drug alone (without KCN) [2, 19] | Value relative to DMSO control, drug alone (without KCN) [2, 20] | Value relative to DMSO control, drug alone (without KCN) [2, 21] | Value relative to DMSO control, drug alone (without KCN) [2, 22] | Value relative to DMSO control, drug alone (without KCN) [2, 23] | Value relative to DMSO control, drug alone (without KCN) [2, 24] | Value relative to DMSO control, drug alone (without KCN) [2, 25] | also measured |
| --- | --- | --- | --- | --- | --- | --- | --- | --- | --- | --- | --- | --- | --- | --- | --- | --- | --- | --- | --- | --- | --- |
| Cc1nc2ccccc2n1Cc1ccc(Cl)cc1 [STK697993] | – | – | – | – | – | – | – | – | – | – | – | – | – | – | – | – | – | – | – | – | viability score (0-1) relative to DMSO controls ([1]; 2 µM): 1.000; viability score (0-1) relative to DMSO controls ([1]; 3.9 µM): 1.000; viability score (0-1) relative to DMSO controls ([1]; 15.6 µM): 0.943; viability score (0-1) relative to DMSO controls ([1]; 31.3 µM): 0.0076; viability score (0-1) relative to DMSO controls ([1]; 62.5 µM): 0.000; viability score (0-1) relative to DMSO controls ([1]; 125 µM): 0.007; viability score (0-1) relative to DMSO controls ([1]; 250 µM): 0.026 |
| Cc1cc(O)c2c(c1)O[C@@]1(C)CC[C@H]3C(C)(C)CCC[C@]34CO[C@@H]2[C@H]41 [Siccanin] | 1.015 | 1.185 and 1.067 and 1.014 and 0.891 and 0.918 | 1.093 | 1.232 and 1.040 and 1.048 and 0.936 and 1.206 | 1.048 | 1.109 and 1.211 and 1.036 and 0.917 and 0.964 | 1.013 | 1.207 and 1.062 and 0.959 and 0.891 and 0.945 | 1.008 | 1.037 and 1.098 and 0.979 and 0.904 and 1.020 | 0.898 | 0.890 and 0.970 and 0.950 and 0.655 and 1.026 | 0.790 | 1.073 and 0.897 and 0.844 and 0.477 and 0.657 | 0.737 | 0.991 and 0.757 and 0.575 and 0.705 and 0.658 | 0.668 | 0.587 and 0.826 and 0.603 and 0.513 and 0.810 | 0.433 | 0.545 and 0.463 and 0.295 and 0.375 and 0.488 | – |
| c1ccc2[nH]c(-c3cscn3)nc2c1 [Thiabendazole] | – | – | – | – | – | – | – | – | – | – | – | – | – | – | – | – | – | – | – | – | percent (%) in vitro complex I activity relative to solvent control ([3]; 0.125 µM, mean of replicates): 102.109%; percent (%) in vitro complex I activity relative to solvent control ([3]; 0.125 µM, single replicate): 99.976% and 103.068% and 101.883% and 103.510%; percent (%) in vitro complex I activity relative to solvent control ([3]; 0.313 µM, mean of replicates): 98.029%; percent (%) in vitro complex I activity relative to solvent control ([3]; 0.313 µM, single replicate): 96.436% and 97.421% and 98.637% and 99.622%; percent (%) in vitro complex I activity relative to solvent control ([3]; 0.625 µM, mean of replicates): 100.000%; percent (%) in vitro complex I activity relative to solvent control ([3]; 0.625 µM, single replicate): 100.000%; percent (%) in vitro complex I activity relative to solvent control ([3]; 1.5 µM, mean of replicates): 94.806%; percent (%) in vitro complex I activity relative to solvent control ([3]; 1.5 µM, single replicate): 99.025% and 95.797% and 89.075% and 95.328%; percent (%) in vitro complex I activity relative to solvent control ([3]; 3 µM, mean of replicates): 103.387%; percent (%) in vitro complex I activity relative to solvent control ([3]; 3 µM, single replicate): 101.704% and 108.843% and 104.258% and 98.742%; percent (%) in vitro complex I activity relative to solvent control ([3]; 15 µM, mean of replicates): 102.027%; percent (%) in vitro complex I activity relative to solvent control ([3]; 15 µM, single replicate): 100.357% and 106.821% and 103.640% and 97.291%; percent (%) in vitro complex I activity relative to solvent control ([3]; 37.5 µM, mean of replicates): 98.201%; percent (%) in vitro complex I activity relative to solvent control ([3]; 37.5 µM, single replicate): 99.533% and 98.195% and 100.518% and 94.556%; percent (%) in vitro complex I activity relative to solvent control ([3]; 75 µM, mean of replicates): 97.767%; percent (%) in vitro complex I activity relative to solvent control ([3]; 75 µM, single replicate): 97.247% and 98.620% and 98.499% and 96.702%; C. elegans L1 relative motility, 3-hour post 200 µM KCN dilution [4]: 1.000 |
| O=C(NCCc1ccc(Cl)cc1)c1ccccc1C(F)(F)F [Wact-11] | 1.053 | 0.994 and 1.015 and 1.070 and 1.131 | 1.080 | 0.940 and 1.013 and 1.214 and 1.154 | 1.046 | 0.988 and 1.230 and 1.034 | 1.007 | 0.912 and 0.907 and 0.949 and 1.257 | 0.983 | 0.954 and 0.915 and 1.162 and 0.901 | 0.923 | 0.914 and 0.918 and 0.975 and 0.884 | 0.780 | 0.693 and 0.662 and 1.090 and 0.677 | 0.783 | 0.523 and 0.436 and 0.991 and 1.184 | 0.600 | 0.549 and 0.392 and 0.803 and 0.657 | 0.425 | 0.232 and 0.150 and 0.884 and 0.433 | Value relative to DMSO control, drug alone (without KCN) [2]: 0.932 |
| COC(=O)Nc1nc2ccc(Sc3ccccc3)cc2[nH]1 [fenbendazole, reference compound] | – | – | – | – | – | – | – | – | – | – | – | – | – | – | – | – | – | – | – | – | reduction in H. polygyrus worm burden ([5]; single dose 100 mg/kg, mice): 90% |
| COC(=O)Nc1nc2ccc(C(=O)c3ccccc3)cc2[nH]1 [mebendazole, reference compound] | – | – | – | – | – | – | – | – | – | – | – | – | – | – | – | – | – | – | – | – | reduction in worm burden, H. polygyrus murine model ([5]; single 300 mg/kg dose): 63.5%; C. elegans L1 relative motility, 3-hour post 200 µM KCN dilution [4]: 1.000 |
